Measurements from patent US20030105281A1, “Antimicrobial peptides isolated from mast cells” (priority 2000, published 2003).
Values after ≈ are worked out from the molar mass of the structure shown. Residues, ends and D or L forms follow the SMILES beside them. No end group written: not given here.

Assays:
Enterococcus gallinarum = format: cell-based
Description: (§1) The antimicrobial activity of synthetic piscidin 1, piscidin 2 and piscidin 3 (P1, P2 and P3) was tested against a variety of different bacteria.

Aeromonas hydrophilia = format: cell-based
Description: as §1

Pseudomonas aeruginosa = system: Pseudomonas aeruginosa
Description: as §1

Enterococcus faecium = format: cell-based; conditions: Case 00-1437, vancomycin resistant, vanA; MHB
Description: as §1

[1] = system: Staphylococcus epidermidis; format: cell-based
Description: as §1

Streptococcus iniae = format: cell-based
Description: as §1

Staphylococcus aureus = system: Staphylococcus aureus
Description: as §1

Escherichia coli = system: Escherichia coli
Description: as §1

human pathogens = experiment: Activity of dimeric peptide against human pathogens; format: cell-based
Excerpt: (§2) where CC is linked via a disulfide bridge.

[2] = format: cell-based
Excerpt: as §2

bacteria = experiment: Antibacterial activity of synthetic SEQ ID NO: 4 sequence; format: cell-based; conditions: synthetic sequence with tryptophan as X
Excerpt: [SEQ ID NO: 4], where X is tryptophan or beta-hydroxytryptophan. It is tentatively believed that beta-hydroxytryptophan is present as X in the natural sequence.

CC[C@H](C)[C@H](NC(=O)CNC(=O)[C@H](CCCNC(=N)N)NC(=O)[C@H](Cc1ccccc1)NC(=O)[C@@H](NC(=O)[C@H](Cc1c[nH]cn1)NC(=O)[C@H](Cc1c[nH]cn1)NC(=O)[C@H](Cc1ccccc1)NC(=O)[C@@H](N)Cc1ccccc1)[C@@H](C)CC)C(=O)N[C@H](C(=O)N[C@@H](Cc1c[nH]cn1)C(=O)N[C@H](C(=O)NCC(=O)N[C@@H](CCCCN)C(=O)N[C@H](C(=O)N[C@H](C(=O)N[C@@H](Cc1c[nH]cn1)C(=O)N[C@@H](CCCNC(=N)N)C(=O)N[C@@H](CC(C)C)C(=O)N[C@H](C(=O)N[C@H](C(=O)NCC(N)=O)[C@@H](C)O)C(C)C)[C@@H](C)CC)[C@@H](C)O)C(C)C)C(C)C [P1] (H-FFHHIFRGIVHVGKTIHRLVTG-NH2; N-terminus assumed)
MBC (Enterococcus gallinarum): 12.5 µg/mL (≈ 4.86 µM)
MIC (Enterococcus gallinarum): 12.5 µg/mL (≈ 4.86 µM)
MBC (Aeromonas hydrophilia): 0.79 to 1.57 µg/mL
MIC (Aeromonas hydrophilia): 0.79 to 1.57 µg/mL
MBC (Pseudomonas aeruginosa): 12.5 µg/mL (≈ 4.86 µM)
MIC (Pseudomonas aeruginosa): 12.5 µg/mL (≈ 4.86 µM)

CC[C@H](C)[C@H](NC(=O)CNC(=O)[C@H](CCCNC(=N)N)NC(=O)[C@H](Cc1ccccc1)NC(=O)[C@@H](NC(=O)[C@H](Cc1c[nH]cn1)NC(=O)[C@H](Cc1c[nH]cn1)NC(=O)[C@@H](NC(=O)[C@@H](N)Cc1ccccc1)[C@@H](C)CC)[C@@H](C)CC)C(=O)N[C@H](C(=O)N[C@@H](Cc1c[nH]cn1)C(=O)N[C@@H](C)C(=O)NCC(=O)N[C@@H](CCCNC(=N)N)C(=O)N[C@@H](CO)C(=O)N[C@H](C(=O)NCC(=O)N[C@@H](CCCNC(=N)N)C(=O)N[C@@H](Cc1ccccc1)C(=O)N[C@@H](CC(C)C)C(=O)N[C@H](C(=O)NCC(N)=O)[C@@H](C)O)[C@@H](C)CC)C(C)C [P3] (H-FIHHIFRGIVHAGRSIGRFLTG-NH2; N-terminus assumed)
MBC (Enterococcus gallinarum): 50 µg/mL (≈ 20.1 µM)
MIC (Enterococcus gallinarum): 50 µg/mL (≈ 20.1 µM)
MIC (Enterococcus faecium): 3.13 to 6.25 µg/mL
MBC (Aeromonas hydrophilia): 1.57 to 3.13 µg/mL
MIC (Aeromonas hydrophilia): 1.57 to 3.13 µg/mL
MIC [1]: 3.13 µg/mL (≈ 1.26 µM)
MBC (Streptococcus iniae): 3.13 µg/mL (≈ 1.26 µM)
MIC (Streptococcus iniae): 3.13 µg/mL (≈ 1.26 µM)
MBC (Staphylococcus aureus): 3.13 µg/mL (≈ 1.26 µM)
MIC (Staphylococcus aureus): 3.13 µg/mL (≈ 1.26 µM)
MBC (Escherichia coli): 3.13 µg/mL (≈ 1.26 µM)
MIC (Escherichia coli): 3.13 µg/mL (≈ 1.26 µM)
MBC (Pseudomonas aeruginosa): 25 µg/mL (≈ 10 µM)
MIC (Pseudomonas aeruginosa): 25 µg/mL (≈ 10 µM)

HVIGRFIHHFFCCFFHHIFRGIVH (cysteine pairing not given here; also: dimer) [SEQ ID NO: 6]
activity against several human pathogens (human pathogens): active against several human pathogens
hemolytic activity [2]: no detectable hemolytic activity

FFRHLFRGAKAIFRGARQGXRAHKVVSRYRNRDVPETDNNQEEP [SEQ ID NO: 4, Endobiotic Family 2 peptide, about 5329 Da, X is tryptophan or beta-hydroxytryptophan]
antibacterial activity (bacteria): potent antibacterial activity
